Laboratory results as given in the supplement of paper PMC4858399.

Key:
Details in all cases: exposure time 48 h
[1] = test system: Caenorhabditis elegans N2; experiment: AC50 for larval growth inhibition (Hill fit); higher = less potent
Procedure, shortened: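 Worms were synchronised C. elegans N2 L1 larvae, 50 per well of a 96-well plate, kept 48 h at 20°C in K-medium with killed OP50, 1% DMSO and 0.5–200 µM chemical. Size was taken as COPAS Biosort extinction, log-transformed and averaged per well, using only wells with at least 10 worms. AC50 was estimated by a constrained Hill fit with weighted genetic-algorithm regression; values outside the range are censored.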

[2] = test system: Caenorhabditis elegans N2; experiment: mean nematode size ln(EXT) after 48 h, plate-adjusted (DMSO control set to 6) (ln(EXT), control-adjusted); higher = larger nematodes / less growth inhibition
Procedure, shortened: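 Worms were measured individually for extinction on the Biosort after 48 h at 20°C. They began as synchronised C. elegans N2 L1 larvae in K-medium with killed OP50, 1% DMSO and 0.5–200 µM chemical. Once debris had been removed by a growth model, values were natural-logged and averaged per well to give mean size. The plate adjustment subtracted the vehicle control mean and added 6.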

[3] = test system: Caenorhabditis elegans N2; experiment: lowest effective concentration for larval growth inhibition (size below effect threshold); higher = less potent
Procedure, shortened: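 Chemical exposure ran for 48 h at 20°C: 50 C. elegans N2 L1 larvae per 96-well in K-medium with killed bacteria, 1% DMSO and 0.5, 1, 5, 10, 50, 100 or 200 µM chemical. Extinction of each worm, read as size on the Biosort, was log-transformed and averaged by well. The lowest effective concentration is the first dose whose plate-adjusted mean size is below a fixed value and remains so at all higher doses; the value is 5.665.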

| SMILES | AC50 for larval growth inhibition [1] [µM] | mean nematode size ln(EXT) (ln) ([2]; 0.5 µM) | mean nematode size ln(EXT) (ln) ([2]; 1 µM) | mean nematode size ln(EXT) (ln) ([2]; 5 µM) | mean nematode size ln(EXT) (ln) ([2]; 10 µM) | mean nematode size ln(EXT) (ln) ([2]; 50 µM) | mean nematode size ln(EXT) (ln) ([2]; 100 µM) | mean nematode size ln(EXT) (ln) ([2]; 200 µM) | lowest effective concentration [3] [µM] |
| --- | --- | --- | --- | --- | --- | --- | --- | --- | --- |
| Cc1nccn1-c1ccc(Sc2cccc(C3(C(N)=O)CCOCC3)c2)cc1 | > 200 | 5.74 | 6.03 | 5.84 | 5.88 | 5.86 | 5.81 | 5.48 | 200 |
| N#Cc1cccnc1 [3-Pyridinecarbonitrile] | 18.2 | 5.73 | 5.78 | 5.61 | 5.65 | 5.65 | 5.65 | 5.54 | 5 |
| O=C(O)c1ccc([N+](=O)[O-])cc1 [4-Nitrobenzoic acid] | > 200 | 6 | 5.57 | 5.86 | 5.85 | 5.77 | 5.91 | 5.53 | 200 |
| COC(=O)N(C(=O)N1CO[C@@]2(C(=O)OC)Cc3cc(Cl)ccc3C2=N1)c1ccc(OC(F)(F)F)cc1 [Indoxacarb] | 6.41 | 6 | 5.91 | 5.25 | 4.02 | 3.6 | 3.56 | 3.48 | 5 |
| CCCCCCCC(=O)OC [Methyl octanoate] | > 200 | 5.88 | 5.84 | 5.85 | 5.9 | 5.74 | 5.88 | 5.52 | 200 |
| CCCCCCCCCCC [Undecane] | > 200 | 5.95 | 5.92 | 5.86 | 5.83 | 5.86 | 5.9 | 5.57 | 200 |
| OC(Cn1cncn1)(Cn1cncn1)c1ccc(F)cc1F [Fluconazole] | > 200 | 6.08 | 6.04 | 6.06 | 6.09 | 6.01 | 5.99 | 5.56 | 200 |
| CC(C)(C)c1cc(O)ccc1O [tert-Butylhydroquinone] | > 200 | 5.85 | 5.85 | 5.96 | 5.81 | 5.62 | 5.41 | 5.03 | 50 |
| Cc1ccccc1Cl [2-Chlorotoluene] | 178 | 6.08 | 6.06 | 5.92 | 6.02 | 5.98 | 6.04 | 3.3 | 200 |
| CS(=O)(=O)NC(=O)c1cc(Oc2ccc(C(F)(F)F)cc2Cl)ccc1[N+](=O)[O-] [Fomesafen] | 180 | 5.93 | 5.95 | 5.95 | 5.95 | 5.89 | 6 | 5.52 | 200 |
| COC(=O)c1ccccc1N [Methyl 2-aminobenzoate] | > 200 | 5.88 | 5.87 | 5.91 | 5.88 | 5.8 | 5.7 | 5.64 | 200 |
| CCCN(CC)CC1COC2(CCC(C(C)(C)C)CC2)O1 (stereo unspecified) [Spiroxamine] | 184 | 5.61 | 5.84 | 5.9 | 6.1 | 5.84 | 6.17 | 3.97 | 200 |
| CCCCC(CC)CN1C(=O)C2C3C=CC(C3)C2C1=O (mixture of isomers) [MGK] | 185 | 5.99 | 5.99 | 5.97 | 5.98 | 5.81 | 5.84 | 4.3 | 200 |
| CC(C)(c1ccccc1)c1ccc(O)c(C(C)(C)c2ccccc2)c1 [2,4-Bis(alpha,alpha-dimethylbenzyl)phenol] | 58.7 | 6 | 5.67 | 5.74 | 5.45 | 4.67 | 4.3 | 3.8 | 10 |
